{"source": "patent US7348025B2", "about": "“Small particle liposome aerosols for delivery of anticancer drugs” (priority 1999, dated 2008)", "key": {"[1]": {"test": "Tissue distribution of CPT after inhalation of CPT liposome aerosol", "format": "in vivo, Mouse", "conditions": "mice; for CPT in tissue: individual animals; for concentration at 15 min: mouse, in vivo, 486 ng per mouse, 4 animals, read-out: MEAN (±SD) CPT in tissue", "description": "The final suspension was clear. If precipitation occurred, it was reheated to 50-60° C. The preparation was frozen in liquid nitrogen and lyophilized overnight. For use the material was dissolved in sterile water to the appropriate drug concentration, not exceeding 1.0 mg/ml for either drug. The efficiency of incorporation of drug in the liposomes was examined qualitatively by microscopic examination under polarized light. Unincorporated drug was seen as bi-refringent crystals. The efficiency of incorporation was examined by centrifugation of aqueous suspensions of liposomes on Percoll™ gradients. One-tenth ml of suspension was layered over 2 ml of gradient and centrifuged at 2000 rpm for 25-30 minutes. Liposomes layer at the water-Percoll interface, while unincorporated drug was deposited at the bottom of the tube. Many other lipids may be substituted for DLPC in the formulation and use of liposomes for delivery of drugs by aerosol (26).\n(§1) The mobile phase was 30% acetonitrile and 70% of 0.1% glacial acetic acid. CPT was detected using the Waters 470 scanning fluorescence detector set to an excitation wavelength of 370 nm and an emission wavelength of 440 nm. […] The data were analyzed with the Waters Millenium software.\nThe deposited dose was calculated to be 486 ng per mouse. The mean concentrations in lungs and liver were similar with smaller concentrations in the other sites examined. […] Drug was cleared promptly from the lungs so that 15 minutes after stopping nebulization only negligible amounts of drug were present in the lungs. Liver, kidney and spleen had substantial amounts of drug initially which gradually diminished through the one hour of study. […] These studies indicate substantial immediate deposition of drug in the lungs with rapid clearance to the viscera. The amount of drug contributed by absorption from swallowed drug is uncertain."}, "[2]": {"test": "Time dependent organ distribution of CPT after intranasal administration of DLPC liposomes", "format": "in vivo", "conditions": "other: intranasal instillation, mice, intranasal DLPC liposomal CPT 7 μg per mouse, read-out: CPT in tissue", "description": "The mobile phase was 30% acetonitrile and 70% of 0.1% glacial acetic acid. CPT was detected using the Waters 470 scanning fluorescence detector set to an excitation wavelength of 370 nm and an emission wavelength of 440 nm. […] The data were analyzed with the Waters Millenium software. […]\nCPT was administered in liposomal formulation prepared with DLPC with initial drug concentration 0.2 mg/ml.\n35 μL of suspension was installed to each animal (group of 3 animals was treated for each time point)."}, "[3]": {"test": "Time dependent organ distribution of CPT after intramuscular administration", "format": "in vivo", "conditions": "mouse, mice, i.m. CPT in DMSO/saline suspension, read-out: CPT in tissue", "description": "as §1\nDrug disappeared very slowly from the site of intramuscular injection in the first 12 hours, with only very small concentrations detected in the liver and virtually no drug present at other sites. Concentrations in the blood were negligible throughout the study. The dose administered was the same as that given by intranasal instillation. These findings indicate a speedier and more efficient systemic absorption of drug after pulmonary administration of drug than by the intramuscular route. It is likely that deposition in organs and vascular spaces will increase the opportunity for exposure to albumin molecules and degradation to the carboxyl form of the drug."}, "[4]": {"conditions": "Blood, after 15 minutes inhalation of CPT liposome aerosol"}, "[5]": {"conditions": "Kidney, after 15 minutes inhalation of CPT liposome aerosol"}, "[6]": {"conditions": "Liver, after 15 minutes inhalation of CPT liposome aerosol"}, "[7]": {"conditions": "Spleen, after 15 minutes inhalation of CPT liposome aerosol"}, "[8]": {"conditions": "site of injection, 7 µg/mouse, Site of inj."}, "[9]": {"conditions": "whole blood, 7 μg per mouse, Blood"}}, "note": "“And” between values parts separate entries of the source, which are not always exact repeats. Equal entries are not always repeated. Where two headings read alike, the source gives them in different places.", "data": [{"smiles": "CC[C@@]1(O)C(=O)OCc2c1cc1n(c2=O)Cc2cc3ccccc3nc2-1", "note": "[CPT, 20-S-camptothecin]", "values": [{"measurement": "CPT in tissue", "setting": "[1]; [4]", "value": "7.1 ng/gm and 8.3 ng/gm and 22.6 ng/gm and 17.7 ng/gm"}, {"measurement": "CPT in tissue", "setting": "[1]; [5]", "value": "21.8 ng/gm and 18.0 ng/gm and 50.0 ng/gm and 29.3 ng/gm"}, {"measurement": "CPT in tissue", "setting": "[1]; [6]", "value": "44.3 ng/gm (2×) and 21.9 ng/gm and 178.0 ng/gm"}, {"measurement": "CPT in tissue", "setting": "[1]; Lung, after 15 minutes inhalation of CPT liposome aerosol (0.2 mg/ml in nebulizer)", "value": "48.0 ng/gm and 27.0 ng/gm and 77.5 ng/gm and 52.0 ng/gm"}, {"measurement": "CPT in tissue", "setting": "[1]; [7]", "value": "16.4 ng/gm and 11.4 ng/gm and 25.0 ng/gm and 12.0 ng/gm"}, {"measurement": "concentration at 15 min", "setting": "[1]; [4]", "value": "13.9 ± 7.5", "unit": "ng/g"}, {"measurement": "concentration at 15 min", "setting": "[1]; [5]", "value": "29.8 ± 14.3", "unit": "ng/g"}, {"measurement": "concentration at 15 min", "setting": "[1]; [6]", "value": "72.1 ± 71.4", "unit": "ng/g"}, {"measurement": "concentration at 15 min", "setting": "[1]; Lung, after 15 minutes inhalation of CPT liposome aerosol", "value": "51.1 ± 20.7", "unit": "ng/g"}, {"measurement": "concentration at 15 min", "setting": "[1]; [7]", "value": "16.2 ± 6.3", "unit": "ng/g"}, {"measurement": "concentration at 0 min", "setting": "[2]; Kidney", "value": "542 ± 174", "unit": "ng/g"}, {"measurement": "concentration at 15 min", "setting": "[2]; Kidney", "value": "190 ± 57", "unit": "ng/g"}, {"measurement": "concentration at 30 min", "setting": "[2]; Kidney", "value": "49 ± 13", "unit": "ng/g"}, {"measurement": "concentration at 60 min", "setting": "[2]; Kidney", "value": "24 ± 21", "unit": "ng/g"}, {"measurement": "concentration at 0 min", "setting": "[2]; Liver", "value": "651 ± 418", "unit": "ng/g"}, {"measurement": "concentration at 15 min", "setting": "[2]; Liver", "value": "255 ± 101", "unit": "ng/g"}, {"measurement": "concentration at 30 min", "setting": "[2]; Liver", "value": "66 ± 17", "unit": "ng/g"}, {"measurement": "concentration at 60 min", "setting": "[2]; Liver", "value": "34 ± 7", "unit": "ng/g"}, {"measurement": "concentration at 0 min", "setting": "[2]; Lung", "value": "1290 ± 657", "unit": "ng/g"}, {"measurement": "concentration at 15 min", "setting": "[2]; Lung", "value": "19 ± 3", "unit": "ng/g"}, {"measurement": "concentration at 30 min", "setting": "[2]; Lung", "value": "36 ± 23", "unit": "ng/g"}, {"measurement": "concentration at 60 min", "setting": "[2]; Lung", "value": "7 ± 3", "unit": "ng/g"}, {"measurement": "concentration at 0 min", "setting": "[2]; Spleen", "value": "351 ± 137", "unit": "ng/g"}, {"measurement": "concentration at 15 min", "setting": "[2]; Spleen", "value": "84 ± 32", "unit": "ng/g"}, {"measurement": "concentration at 30 min", "setting": "[2]; Spleen", "value": "21 ± 8", "unit": "ng/g"}, {"measurement": "concentration at 60 min", "setting": "[2]; Spleen", "value": "7 ± 2", "unit": "ng/g"}, {"measurement": "concentration at 0 min", "setting": "[2]; whole blood, Blood", "value": "213 ± 19", "unit": "ng/g"}, {"measurement": "concentration at 15 min", "setting": "[2]; whole blood, Blood", "value": "53 ± 20", "unit": "ng/g"}, {"measurement": "concentration at 30 min", "setting": "[2]; whole blood, Blood", "value": "8 ± 3", "unit": "ng/g"}, {"measurement": "concentration at 60 min", "setting": "[2]; whole blood, Blood", "value": "4 ± 2", "unit": "ng/g"}, {"measurement": "concentration at 0 min", "setting": "[3]; 7 μg per mouse, Kidney", "value": 2, "unit": "ng/g"}, {"measurement": "concentration at 30 min", "setting": "[3]; 7 μg per mouse, Kidney", "value": "40 ± 14", "unit": "ng/g"}, {"measurement": "concentration at 60 min", "setting": "[3]; 7 μg per mouse, Kidney", "value": "26 ± 7", "unit": "ng/g"}, {"measurement": "concentration at 1200 min", "setting": "[3]; 7 μg per mouse, Kidney", "value": "15 ± 5", "unit": "ng/g"}, {"measurement": "concentration at 0 min", "setting": "[3]; 7 μg per mouse, Spleen", "value": "2 ± 1", "unit": "ng/g"}, {"measurement": "concentration at 30 min", "setting": "[3]; 7 μg per mouse, Spleen", "value": "18 ± 9", "unit": "ng/g"}, {"measurement": "concentration at 60 min", "setting": "[3]; 7 μg per mouse, Spleen", "value": "11 ± 5", "unit": "ng/g"}, {"measurement": "concentration at 1200 min", "setting": "[3]; 7 μg per mouse, Spleen", "value": "5 ± 1", "unit": "ng/g"}, {"measurement": "concentration at 60 min", "setting": "[3]; 7 µg/mouse, Blood", "value": "8 ± 1", "unit": "ng/g"}, {"measurement": "concentration at 1200 min", "setting": "[3]; 7 µg/mouse, Blood", "value": "4 ± 1", "unit": "ng/g"}, {"measurement": "concentration at 0 min", "setting": "[3]; 7 µg/mouse, Liver", "value": "3 ± 1", "unit": "ng/g"}, {"measurement": "concentration at 30 min", "setting": "[3]; 7 µg/mouse, Liver", "value": "87 ± 74", "unit": "ng/g"}, {"measurement": "concentration at 60 min", "setting": "[3]; 7 µg/mouse, Liver", "value": "136 ± 107", "unit": "ng/g"}, {"measurement": "concentration at 1200 min", "setting": "[3]; 7 µg/mouse, Liver", "value": "126 ± 116", "unit": "ng/g"}, {"measurement": "concentration at 0 min", "setting": "[3]; 7 µg/mouse, Lung", "value": "2 ± 1", "unit": "ng/g"}, {"measurement": "concentration at 30 min", "setting": "[3]; 7 µg/mouse, Lung", "value": "4 ± 2", "unit": "ng/g"}, {"measurement": "concentration at 60 min", "setting": "[3]; 7 µg/mouse, Lung", "value": "3 ± 3", "unit": "ng/g"}, {"measurement": "concentration at 1200 min", "setting": "[3]; 7 µg/mouse, Lung", "value": "4 ± 3", "unit": "ng/g"}, {"measurement": "concentration at 0 min", "setting": "[3]; [8]", "value": "6920 ± 265", "unit": "ng/g"}, {"measurement": "concentration at 30 min", "setting": "[3]; [8]", "value": "4310 ± 1550", "unit": "ng/g"}, {"measurement": "concentration at 60 min", "setting": "[3]; [8]", "value": "4610 ± 1410", "unit": "ng/g"}, {"measurement": "concentration at 1200 min", "setting": "[3]; [8]", "value": "1540 ± 751", "unit": "ng/g"}, {"measurement": "concentration at 0 min", "setting": "[3]; [9]", "value": "2 ± 1", "unit": "ng/g"}, {"measurement": "concentration at 30 min", "setting": "[3]; [9]", "value": "12 ± 5", "unit": "ng/g"}]}]}
